Measurements reported in patent US9440946B2, “N-phenethylcarboxamide derivatives” (BAYER INTELLECTUAL PROPERTY GMBH, priority 2005, dated 2016).

Legend:
Alternaria brassicae = experiment: In vivo test on Alternaria brassicae (leaf spot of crucifers), preventive spray on radish plants; settings: radish plants (Pernot variety), contaminated 24 hours after treatment, grading 6 to 7 days after contamination vs control plants, read-out: protection (good, at least 70%, or total); for pest or weed control at 330 ppm: dose of 330 ppm; for pest or weed control at 500 ppm: dose of 500 ppm
Description: (§1) The active ingredients tested are prepared by homogenization in a mixture of acetone/tween/DMSO, then diluted with water to obtain the desired active material concentration.
Radish plants (Pernot variety), sown on a 50/50 peat soil-pozzolana substrate in starter cups and grown at 18-20° C., are treated at the cotyledon stage by spraying with the active ingredient prepared as described above.
(§2) Plants, used as controls, are treated with the mixture of acetone/tween/DMSO/water not containing the active material.
After 24 hours, the plants are contaminated by spraying them with an aqueous suspension of Alternaria brassicae spores (40,000 spores per cm^3). The spores are collected from a 12 to 13 days-old culture.
The contaminated radish plants are incubated for 6-7 days at about 18° C., under a humid atmosphere.
Grading is carried out 6 to 7 days after the contamination, in comparison with the control plants.

Botrytis cinerea = experiment: In vivo test on Botrytis cinerea (cucumber grey mould), preventive spray on gherkin plants; settings: gherkin plants (Vert petit de Paris variety), contaminated 24 hours after treatment, grading 5/7 days after contamination vs control plants, read-out: protection (good, at least 50%, or total); for pest or weed control at 500 ppm: dose of 500 ppm; for pest or weed control at 330 ppm: dose of 330 ppm
Description: The active ingredients tested are prepared by homogenization in a mixture of acetone/tween/DMSO, then diluted with water to obtain the desired active material
Gherkin plants (Vert petit de Paris variety), sown on a 50/50 peat soil-pozzolana substrate in starter cups and grown at 18-20° C., are treated at the cotyledon Z11 stage by spraying with the active ingredient prepared as described above.
as §2
After 24 hours, the plants are contaminated by depositing drops of an aqueous suspension of Botrytis cinerea spores (150,000 spores per ml) on upper surface of the leaves. The spores are collected from a 15-day-old culture and are suspended in a nutrient solution composed of: • 20 g/L of gelatin • 50 g/L of cane sugar • 2 g/L of NH4NO3 • 1 g/L of KH2PO4
The contaminated cucumber plants are settled for 5/7 days in a climatic room at 15-11° C. (day/night) and at 80% relative humidity.
Grading is carried out 5/7 days after the contamination, in comparison with the control plants. Under these conditions, good (at least 50%) or total protection is observed: • at a dose of 500 ppm with the following compounds: C-1, D-12, G-8 and I-1; and • at a dose of 330 ppm with the following compounds: G-2, G-5, G-6 and G11.

Pyrenophora teres = experiment: In vivo test on Pyrenophora teres (barley net blotch), preventive spray on barley plants; settings: 288 h, barley plants (Express variety), contaminated 24 hours after treatment, grading 12 days after contamination vs control plants, read-out: protection (good, at least 70%, or total); for pest or weed control at 330 ppm: dose of 330 ppm
Description: as §1
Barley plants (Express variety), sown on a 50/50 peat soil-pozzolana substrate in starter cups and grown at 12° C., are treated at the 1-leaf stage (10 cm tall) by spraying with the active ingredient prepared as described above. Plants, used as controls, are treated with the mixture of acetone/tween/DMSO/water not containing the active material.
After 24 hours, the plants are contaminated by spraying them with an aqueous suspension of Pyrenophora teres spores (12,000 spores per ml). The spores are collected from a 12-day-old culture. The contaminated barley plants are incubated for 24 hours at about 20° C. and at 100% relative humidity, and then for 12 days at 80% relative humidity.
Grading is carried out 12 days after the contamination, in comparison with the control plants.

Row | SMILES | pest or weed control at 330 ppm (Alternaria brassicae) | pest or weed control at 330 ppm (Pyrenophora teres) | further results
1 | COc1cccc(CCNC(=O)c2cn(C)nc2C(F)F)c1OC [Compound G-3] | ≥ 70% | – | –
2 | Cc1nc(C(F)F)c(C(=O)NCCc2ccc(Cl)cc2Cl)s1 [Compound D-12] | – | – | pest or weed control at 500 ppm (Botrytis cinerea): ≥ 50%
3 | Cc1ccc(CCNC(=O)c2sc(C)nc2C(F)(F)F)c(C)c1 [Compound D-2] | ≥ 70% | – | –
4 | Cn1cc(C(=O)NCCc2ccccc2Cl)c(C(F)F)n1 [Compound G-2] | ≥ 70% | ≥ 70% | pest or weed control at 330 ppm (Botrytis cinerea): ≥ 50%
5 | Cc1ccc(C)c(CCNC(=O)c2cn(C)nc2C(F)(F)F)c1 [Compound G-17] | ≥ 70% | – | –
6 | Cc1nc(C(F)(F)F)c(C(=O)NCCc2c(Cl)cccc2Cl)s1 [Compound D-4] | ≥ 70% | – | –
7 | Cc1occc1C(=O)NCCc1ccc(Cl)cc1Cl [Compound C-1] | – | – | pest or weed control at 500 ppm (Botrytis cinerea): ≥ 50%
8 | Cn1cc(C(=O)NCCc2c(Cl)cccc2Cl)c(C(F)F)n1 [Compound G-6] | ≥ 70% | ≥ 70% | pest or weed control at 330 ppm (Botrytis cinerea): ≥ 50%
9 | Cc1ccccc1CCNC(=O)c1cn(C)nc1C(F)F [Compound G-12] | ≥ 70% | – | –
10 | COc1ccccc1CCNC(=O)c1cn(C)nc1C(F)F [Compound G-4] | ≥ 70% | ≥ 70% | –
11 | Cn1cc(C(=O)NCCc2ccc(F)cc2F)c(C(F)(F)F)n1 [Compound G-20] | – | ≥ 70% | –
12 | Cc1ccc(CCNC(=O)c2cccnc2Cl)c(C)c1 [Compound E-9] | ≥ 70% | – | –
13 | COc1ccc(OC)c(CCNC(=O)c2cn(C)nc2C(F)F)c1 [Compound G-7] | ≥ 70% | – | –
14 | COc1ccc(Br)cc1CCNC(=O)c1cn(C)nc1C(F)F [Compound G-10] | ≥ 70% | – | –
15 | O=C(NCCc1ccc(Cl)cc1Cl)c1ccsc1I [Compound I-1] | – | – | pest or weed control at 500 ppm (Botrytis cinerea): ≥ 50%; pest or weed control at 500 ppm (Alternaria brassicae): ≥ 70%
16 | Cc1ccc(C)c(CCNC(=O)c2cccnc2Cl)c1 [Compound E-1] | ≥ 70% | – | –
17 | Cc1nc(N)sc1C(=O)NCCc1ccc(Cl)cc1Cl [Compound D-8] | – | – | pest or weed control at 500 ppm (Pyrenophora teres; dose of 500 ppm): ≥ 70%; pest or weed control at 500 ppm (Alternaria brassicae): ≥ 70%
18 | Cn1cc(C(=O)NCCc2ccc(F)cc2F)c(C(F)F)n1 [Compound G-8] | ≥ 70% | ≥ 70% | pest or weed control at 500 ppm (Botrytis cinerea): ≥ 50%
19 | Cn1cc(C(=O)NCCc2c(Cl)cc(C(F)(F)F)cc2Cl)c(C(F)F)n1 [Compound G-11] | – | ≥ 70% | pest or weed control at 330 ppm (Botrytis cinerea): ≥ 50%
20 | Cc1ccccc1CCNC(=O)c1cn(C)nc1C(F)(F)F [Compound G-14] | ≥ 70% | – | –
21 | Cc1ccc(CCNC(=O)c2cn(C)nc2C(F)F)c(C)c1 [Compound G-5] | ≥ 70% | ≥ 70% | pest or weed control at 330 ppm (Botrytis cinerea): ≥ 50%
22 | Cc1ccccc1CCNC(=O)c1cccnc1Cl [Compound E-2] | ≥ 70% | – | –
23 | Cn1cc(C(=O)NCCc2ccc(C(F)(F)F)cc2Cl)c(C(F)(F)F)n1 [Compound G-15] | ≥ 70% | ≥ 70% | –
24 | Cc1nc(C(F)(F)F)c(C(=O)NCCc2ccccc2C)s1 [Compound D-6] | – | ≥ 70% | –
25 | Cc1ccsc1C(=O)NCCc1ccc(Cl)cc1Cl [Compound A-2] | – | – | pest or weed control at 500 ppm (Alternaria brassicae): ≥ 70%
